Data on three compounds can be found in patent publication US7241863B2, “Human metabotropic glutamate receptor” (NPS Pharmaceuticals, Inc., priority 2003, dated 2007).

What all share (format): cell-based
The target in experiment [1] is T1, hCaR/hmGluR5d chimeric receptor (Homo sapiens, UniProt P41180).
T1 construct: expressed in transfected cells; host or cells: HEK293 cells (ATCC CRL 1573) stably transfected with phCaR/hmGluR5d(Hyg+)
As to the kind of experiment: Increases in intracellular calcium (Fluo3-AM, FLIPR) in HEK293 cells expressing the chimeric receptor. Particulars: hCaR/hmGluR5d expressed in HEK293 cells, FIG. 5. As to the method:
This example provides a method for the production of stably transfected mammalian cell lines expressing the chimeric receptor hCaR/hmGluR5d, but is not meant to be limiting. Human embryonic kidney cells (293, ATCC, CRL 1573) are grown in a routine manner. Cells are plated in 10 cm cell-culture plates in Dulbecco's modified Eagle's medium (D-MEM) containing 10% fetal bovine serum (FBS) and 1×penicillin-streptomycin (Life Technologies) so that they are approximately 70% confluent after an overnight incubation. To prepare DNA for transfection, the plasmid phCaR/hmGluR5d(Hyg+) is precipitated with ethanol, rinsed and resuspended in sterile water at a concentration of 1 μg/μl. Ten micrograms of the plasmid DNA is incubated with the liposome formulation LipofectAMINE™ (Life Technologies) for 20 minutes in 1.6 mls of serum-free Opti-MEM (Life Technologies). […] Expression can also be assessed by Western blot analysis using the commercially available antibody Anti-Rat mGluR5, polyclonal (Upstate Biotechnology).
The chimeric receptor, hCaR/hmGluR5d, also mediates the stimulation of inositol phosphate (IP)/Ca^2+ signal transduction. […] After an additional 24 hour incubation, cells are loaded with the calcium indicator dye Fluo3-AM and increases in intracellular calcium in response to calcium are measured using an automated fluorescent imaging plate reader (FLIPR). […]

A further experiment has as its target T2, human mGluR5d receptor (Homo sapiens, UniProt P41594).
T2 construct: expressed in transfected cells; host or cells: Xenopus laevis oocytes injected with cRNA transcribed from phmGluR5d(Hyg+)
As to the kind of experiment: Xenopus oocyte expression assay, calcium-activated chloride current. The note with it: for desensitization of evoked calcium-activated chloride currents: repeated application of 10-100 μM, Xenopus oocytes expressing hmGluR5d. As to the method: This example describes the activation of the novel hmGluRSd splice variant using a Xenopus oocyte expression assay. PhmGluR5d(Hyg+) DNA was linearized by restriction enzyme digestion, and capped sense-strand cRNA was synthesized by T7 RNA polymerase transcription (Ambion Message Machine Kit). In vitro-transcribed RNA was concentrated by ethanol precipitation and the size and integrity of the RNA was assessed on a denaturing agarose gel.
In vitro-transcribed RNA (˜10 ng) encoding the human mGluR5d receptor was injected into Xenopus Oocytes. Following injection, oocytes were incubated at 16° C. in MBS containing 1 mM CaCl2 for 2 to 7 days prior to electrophysiological recording. Following the incubation, the oocytes were voltage-clamped using standard electrophysiological techniques. […] Activation of the hmGluR5d receptor was detected by increases in the calcium-activated chloride current.
Test substances were applied by superfusion at a flow rate of about 5 ml/min. Receptor activation was determined by measuring the increase in calcium-activated chloride current (ICl) Increases in ICl were quantified by measuring the peak inward current stimulated by activating agent, relative to the holding current at […].

The next experiment concerns the target T3, hmGluR5d receptor (Homo sapiens, UniProt P41594).
T3 construct: The full-length human mGluR5d was then subcloned into the mammalian expression vector pcDNA3.1/Hygro(+) vector; expressed in transfected cells; host or cells: HEK293 cells (ATCC CRL 1573) transfected with phmGluR5d(Hyg+)
As to the kind of experiment: Increases in intracellular calcium (Fluo3-AM, FLIPR) in transfected HEK293 cells. Particulars: hmGluR5d expressed in HEK293 cells, FIG. 4. Background: Calcium assays in cells follow changes in intracellular calcium, usually with a dye or a luminescent sensor.

T2 sequence (P41594 21-942 isoform P41594-3): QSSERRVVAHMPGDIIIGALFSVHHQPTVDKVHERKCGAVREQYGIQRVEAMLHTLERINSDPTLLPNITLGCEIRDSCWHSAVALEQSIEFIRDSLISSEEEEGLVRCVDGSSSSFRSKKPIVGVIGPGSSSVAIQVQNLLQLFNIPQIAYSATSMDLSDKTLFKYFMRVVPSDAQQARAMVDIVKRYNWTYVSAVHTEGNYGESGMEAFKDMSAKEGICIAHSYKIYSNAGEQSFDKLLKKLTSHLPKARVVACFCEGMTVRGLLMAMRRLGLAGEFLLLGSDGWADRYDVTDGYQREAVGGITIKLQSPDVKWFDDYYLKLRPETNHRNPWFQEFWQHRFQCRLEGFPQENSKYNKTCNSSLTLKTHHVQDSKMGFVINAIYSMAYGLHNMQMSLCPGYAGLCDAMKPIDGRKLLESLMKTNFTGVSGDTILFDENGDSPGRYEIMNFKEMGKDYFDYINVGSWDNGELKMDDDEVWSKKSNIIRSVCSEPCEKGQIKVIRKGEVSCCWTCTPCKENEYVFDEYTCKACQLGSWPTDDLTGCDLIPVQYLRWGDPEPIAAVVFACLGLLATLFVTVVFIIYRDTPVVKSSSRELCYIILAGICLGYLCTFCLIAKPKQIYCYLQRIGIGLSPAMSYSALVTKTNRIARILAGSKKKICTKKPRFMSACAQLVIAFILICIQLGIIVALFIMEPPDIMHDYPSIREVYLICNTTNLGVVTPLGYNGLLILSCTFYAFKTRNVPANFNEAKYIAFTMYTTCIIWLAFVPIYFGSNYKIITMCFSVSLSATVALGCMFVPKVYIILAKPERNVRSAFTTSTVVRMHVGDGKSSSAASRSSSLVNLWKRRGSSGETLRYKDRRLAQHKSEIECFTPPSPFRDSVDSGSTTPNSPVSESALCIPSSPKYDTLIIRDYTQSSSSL
T1 sequence (P41180 with tags, fused parts or gaps): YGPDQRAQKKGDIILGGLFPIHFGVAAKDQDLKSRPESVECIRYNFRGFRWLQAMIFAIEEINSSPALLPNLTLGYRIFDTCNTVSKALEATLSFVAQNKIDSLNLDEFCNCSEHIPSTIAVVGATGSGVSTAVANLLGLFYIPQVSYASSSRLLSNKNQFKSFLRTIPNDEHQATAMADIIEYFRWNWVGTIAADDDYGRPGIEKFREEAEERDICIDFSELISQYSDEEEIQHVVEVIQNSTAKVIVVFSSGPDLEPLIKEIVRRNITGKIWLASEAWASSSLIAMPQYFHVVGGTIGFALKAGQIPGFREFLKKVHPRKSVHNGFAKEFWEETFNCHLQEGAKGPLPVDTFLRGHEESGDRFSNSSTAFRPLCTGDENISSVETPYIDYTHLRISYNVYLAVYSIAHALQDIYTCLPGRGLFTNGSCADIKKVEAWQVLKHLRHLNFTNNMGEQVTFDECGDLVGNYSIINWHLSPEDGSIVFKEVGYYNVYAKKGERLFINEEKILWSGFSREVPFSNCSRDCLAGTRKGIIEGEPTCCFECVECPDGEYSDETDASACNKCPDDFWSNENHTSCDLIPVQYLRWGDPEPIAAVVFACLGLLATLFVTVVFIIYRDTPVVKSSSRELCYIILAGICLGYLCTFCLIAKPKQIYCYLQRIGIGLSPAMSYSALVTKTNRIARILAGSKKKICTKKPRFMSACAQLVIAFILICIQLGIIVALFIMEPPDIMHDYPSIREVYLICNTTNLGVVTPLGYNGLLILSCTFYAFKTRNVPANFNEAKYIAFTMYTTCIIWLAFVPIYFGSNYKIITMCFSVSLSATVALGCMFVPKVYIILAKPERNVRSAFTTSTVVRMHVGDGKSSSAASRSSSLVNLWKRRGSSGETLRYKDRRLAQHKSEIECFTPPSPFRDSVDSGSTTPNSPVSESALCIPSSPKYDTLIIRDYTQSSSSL
T3 sequence (P41594 21-942 isoform P41594-3): as the sequence (P41594 21-942 isoform P41594-3) above
Method for hmGluR5d receptor: Human embryonic kidney cells (293, ATCC, CRL 1573) are grown in a routine manner. Cells are plated in 10 cm cell-culture plates in Dulbecco's modified Eagle's medium (D-MEM) containing 10% fetal bovine serum (FBS) and 1× penicillin-streptomycin (Life Technologies) so that they are approximately 70% confluent after an overnight incubation. To prepare DNA for transfection, the plasmid phmGluR5d(Hyg+) is precipitated with ethanol, rinsed and resuspended in sterile water at a concentration of 1 μg/μl. Ten micrograms of the plasmid DNA is incubated with the liposome formulation LipofectAMINE™ (Life Technologies) for 20 minutes in 1.6 mls of serum-free Opti-MEM (Life Technologies). After the room temperature incubation, 6.4 mls of Opti-MEM is added to the transfection mix. This solution is added to the cells which have been rinsed twice with 8 ml washes of Opti-MEM. The cells and transfection mix are incubated at 37° C. for 5 hours, at which time 8 mls of Opti-MEM/20% FBS is added to bring the FBS concentration to 10%. […] Expression of the novel human mGluR5d splice variant of the present invention in clonal cell lines or pools can be assessed by Northern blot analysis of human mGluR5d mRNA or functionally as in the above experiments by assessing increases in intracellular calcium in response to mGluR5 agonists. […]

On to calcium, for which the “functional activation of the chimeric receptor (agonist)” value in experiment [1] is on record as “functional activation”. `N[C@H](C(=O)O)c1cc(O)cc(O)c1` [DHPG, (S)-3,5-dihydroxyphenylglycine]: the “desensitization of evoked calcium-activated chloride currents” value on human mGluR5d receptor was “only minimally desensitized”. The “functional activation of the receptor (agonist)” value at hmGluR5d receptor was “functional activation”. For the compound `N[C@@H](CCC(=O)O)C(=O)O` [L-glutamate], at human mGluR5d receptor (100 μM, applied by superfusion, voltage-clamped Xenopus oocytes expressing hmGluR5d), the “increase in calcium-activated chloride current (receptor activation)” value is “reversible, oscillatory increases in the calcium-activated chloride current”. At human mGluR5d receptor, the “desensitization of evoked calcium-activated chloride currents” value is listed as “only minimally desensitized”.
